Molecular target: T1, human adenosine A2b receptor (Homo sapiens, UniProt P29275)
T1 construct: expressed in transfected cells; host or cells: CHO-K1 (Chinese Hamster Ovary) with CRE-luciferase reporter
T1 sequence (P29275 1-332): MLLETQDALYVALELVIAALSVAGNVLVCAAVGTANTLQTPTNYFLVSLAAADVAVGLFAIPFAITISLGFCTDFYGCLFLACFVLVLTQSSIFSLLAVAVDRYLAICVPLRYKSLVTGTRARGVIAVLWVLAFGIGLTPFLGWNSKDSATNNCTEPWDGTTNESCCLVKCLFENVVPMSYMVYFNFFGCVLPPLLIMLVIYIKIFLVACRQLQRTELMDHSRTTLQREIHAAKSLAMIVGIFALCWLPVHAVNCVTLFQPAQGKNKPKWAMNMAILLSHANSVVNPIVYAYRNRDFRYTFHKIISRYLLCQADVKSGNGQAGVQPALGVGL
Assay: Cellular reporter gene (CRE-luciferase) A2b receptor antagonist assay in recombinant CHO-K1 cells stimulated with NECA
Assay type: cell-based
Conditions: recombinant CHO-K1 cell line, co-incubation with EC50 concentration of NECA, 3 hours, in some cases means, rounded to two significant digits
Procedure, shortened: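 CHO-K1 cells expressing human A2b receptor with a CRE-driven firefly luciferase reporter, co-incubated with test compound and NECA at its same-day EC50 concentration. Luminescence read 3 hours after NECA addition.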

Structure (SMILES)	IC50 [µM]
Cc1c(C(=O)N2CCC(C)(O)CC2)sc2c1c(=O)n(CCc1ccccc1)c(=O)n2CCC(F)(F)F [Example 67, 6-[(4-Hydroxy-4-methylpiperidin-1-yl)carbonyl]-5-methyl-3-(2-phenylethyl)-1-(3,3,3-trifluoropropyl)thieno[2,3-d]pyrimidine-2,4(1H,3H)-dione]	0.013
Cc1c(C(=O)N2CCC(O)(CO)CC2)sc2c1c(=O)n(CCc1ccccc1)c(=O)n2CCC(F)(F)F [Example 68, 6-{[4-Hydroxy-4-(hydroxymethyl)piperidin-1-yl]carbonyl}-5-methyl-3-(2-phenylethyl)-1-(3,3,3-trifluoropropyl)thieno[2,3-d]pyrimidine-2,4(1H,3H)-dione]	0.02
Cc1c(C(=O)N2CCC(O)(C(F)(F)F)CC2)sc2c1c(=O)n(CCc1ccccc1)c(=O)n2CCC(F)(F)F [Example 69, 6-{[4-Hydroxy-4-(trifluoromethyl)piperidin-1-yl]carbonyl}-5-methyl-3-(2-phenylethyl)-1-(3,3,3-trifluoropropyl)thieno[2,3-d]pyrimidine-2,4(1H,3H)-dione]	0.06
Cc1c(C(=O)N2CCC(O)(CO)CC2)sc2c1c(=O)n(CC(F)(F)c1ccccc1)c(=O)n2CCC(F)(F)F [Example 70, 3-(2,2-Difluoro-2-phenylethyl)-6-{[4-hydroxy-4-(hydroxymethyl)piperidin-1-yl]carbonyl}-5-methyl-1-(3,3,3-trifluoropropyl)thieno [2,3-d]pyrimidine-2,4(1H,3H)-dione]	0.028
COCCn1c(=O)n(CC(F)(F)c2ccccc2)c(=O)c2c(C)c(C(=O)N3CCC(O)(CO)CC3)sc21 [Example 71, 3-(2,2-Difluoro-2-phenylethyl)-6-{[4-hydroxy-4-(hydroxymethyl)piperidin-1-yl]carbonyl}-1-(2-methoxyethyl)-5-methylthieno[2,3-d]pyrimidine-2,4(1H,3H)-dione]	0.42
CCn1c(=O)c2c(C)c(C(=O)N3CC4CCCC(C3)C4O)sc2n(CCC(F)(F)F)c1=O (stereo not drawn) [Example 72, 3-Ethyl-6-[(9-hydroxy-3-azabicyclo[3.3.1]non-3-yl)carbonyl]-5-methyl-1-(3,3,3-trifluoropropyl)thieno[2,3-d]pyrimidine-2,4(1H,3H)-dione (α-epimer)]	0.017
CCn1c(=O)c2c(C)c(C(=O)N3CCC(O)(CO)CC3)sc2n(CCOC(F)(F)F)c1=O [Example 75, 3-Ethyl-6-{[4-hydroxy-4-(hydroxymethyl)piperidin-1-yl]carbonyl}-5-methyl-1-[2-(trifluoromethoxy)ethyl]thieno[2,3-d]pyrimidine-2,4(1H,3H)-dione]	0.033
CCCn1c(=O)c2c(C)c(C(=O)N3CCC(O)(CO)CC3)sc2n(CCOC)c1=O [Example 78, 6-{[4-Hydroxy-4-(hydroxymethyl)piperidin-1-yl]carbonyl}-1-(2-methoxyethyl)-5-methyl-3-propylthieno[2,3-d]pyrimidine-2,4(1H,3H)-dione]	0.35
CCCn1c(=O)c2c(C)c(C(=O)N3CCC(C)(O)CC3)sc2n(CCOC(F)(F)F)c1=O [Example 79, 6-[(4-Hydroxy-4-methylpiperidin-1-yl)carbonyl]-5-methyl-3-propyl-1-[2-(trifluoromethoxy)ethyl]thieno[2,3-d]pyrimidine-2,4(1H,3H)-dione]	0.008
CCCn1c(=O)c2c(C)c(C(=O)N3CCC(O)(CO)CC3)sc2n(CCOC(F)(F)F)c1=O [Example 80, 6-{[4-Hydroxy-4-(hydroxymethyl)piperidin-1-yl]carbonyl}-5-methyl-3-propyl-1-[2-(trifluoromethoxy)ethyl]thieno[2,3-d]pyrimidine-2,4(1H,3H)-dione]	0.027
CCn1c(=O)c2c(C(F)(F)F)c(C(=O)N3CCC(C)(O)CC3)sc2n(CCC(F)(F)F)c1=O [Example 82, 3-Ethyl-6-[(4-hydroxy-4-methylpiperidin-1-yl)carbonyl]-5-(trifluoromethyl)-1-(3,3,3-trifluoropropyl)thieno[2,3-d]pyrimidine-2,4(1H,3H)-dione]	0.023
CCn1c(=O)c2c(C(F)(F)F)c(C(=O)N3CCC(O)(CO)CC3)sc2n(CCC(F)(F)F)c1=O [Example 83, 3-Ethyl-6-{[4-hydroxy-4-(hydroxymethyl)piperidin-1-yl]carbonyl}-5-(trifluoromethyl)-1-(3,3,3-trifluoropropyl)thieno[2,3-d]pyrimidine-2,4(1H,3H)-dione]	0.056
CC1(O)CCN(C(=O)c2sc3c(c2C(F)F)c(=O)n(CCc2ccccc2)c(=O)n3CCC(F)(F)F)CC1 [Example 85, 5-(Difluoromethyl)-6-[(4-hydroxy-4-methylpiperidin-1-yl)carbonyl]-3-(2-phenylethyl)-1-(3,3,3-trifluoropropyl)thieno[2,3-d]pyrimidine-2,4(1H,3H)-dione]	0.0095
O=C(c1sc2c(c1C(F)F)c(=O)n(CCc1ccccc1)c(=O)n2CCC(F)(F)F)N1CCC(O)(CO)CC1 [Example 86, 5-(Difluoromethyl)-6-{[4-hydroxy-4-(hydroxymethyl)piperidin-1-yl]carbonyl}-3-(2-phenylethyl)-1-(3,3,3-trifluoropropyl)thieno[2,3-d]pyrimidine-2,4(1H,3H)-dione]	0.012
O=C(c1cc2c(=O)n(CCc3ccccc3)c(=O)n(CCC(F)(F)F)c2s1)N1CCC(O)CC1 [Example 90, 6-[(4-Hydroxypiperidin-1-yl)carbonyl]-3-(2-phenylethyl)-1-(3,3,3-trifluoropropyl)thieno[2,3-d]pyrimidine-2,4(1H,3H)-dione]	0.44
CC1(O)CCN(C(=O)c2cc3c(=O)n(CCc4ccccc4)c(=O)n(CCC(F)(F)F)c3s2)CC1 [Example 91, 6-[(4-Hydroxy-4-methylpiperidin-1-yl)carbonyl]-3-(2-phenylethyl)-1-(3,3,3-trifluoropropyl)thieno[2,3-d]pyrimidine-2,4(1H,3H)-dione]	0.26
O=C(c1cc2c(=O)n(CCc3ccccc3)c(=O)n(CCC(F)(F)F)c2s1)N1CCC(O)(CO)CC1 [Example 92, 6-{[4-Hydroxy-4-(hydroxymethyl)piperidin-1-yl]carbonyl}-3-(2-phenylethyl)-1-(3,3,3-trifluoropropyl)thieno[2,3-d]pyrimidine-2,4(1H,3H)-dione]	0.37
Cc1c(C(=O)N2CCNC(=O)C2)sc2c1c(=O)n(CC(F)(F)c1ccccc1)c(=O)n2CCC(F)(F)F [Example 93, 3-(2,2-Difluoro-2-phenylethyl)-5-methyl-6-[(3-oxopiperazin-1-yl)carbonyl]-1-(3,3,3-trifluoropropyl)thieno[2,3-d]pyrimidine-2,4(1H,3H)-dione]	0.036

Other lines, results leading:

IC50 [µM]	Structure (SMILES)
0.017	C#CCCn1c(=O)c2c(C)c(C(=O)N3CCC(O)CC3)sc2n(CCC(F)(F)F)c1=O [Example 61, 3-(But-3-yn-1-yl)-6-[(4-hydroxypiperidin-1-yl)carbonyl]-5-methyl-1-(3,3,3-trifluoropropyl)thieno[2,3-d]pyrimidine-2,4(1H,3H)-dione]
0.12	COCCn1c(=O)c2c(C)c(C(=O)N3CCC(O)CC3)sc2n(CCC(F)(F)F)c1=O [Example 62, 6-[(4-Hydroxypiperidin-1-yl)carbonyl]-3-(2-methoxyethyl)-5-methyl-1-(3,3,3-trifluoropropyl)thieno[2,3-d]pyrimidine-2,4(1H,3H)-dione]
0.21	Cc1c(C(=O)N2CCC(O)CC2)sc2c1c(=O)n(CCC1CC1)c(=O)n2CCC(F)(F)F [Example 63, 3-(2-Cyclopropylethyl)-6-[(4-hydroxypiperidin-1-yl)carbonyl]-5-methyl-1-(3,3,3-trifluoropropyl)thieno[2,3-d]pyrimidine-2,4(1H,3H)-dione]
0.045	Cc1c(C(=O)N2CCC(O)CC2)sc2c1c(=O)n(CC(C)C)c(=O)n2CCC(F)(F)F [Example 64, 6-[(4-Hydroxypiperidin-1-yl)carbonyl]-3-isobutyl-5-methyl-1-(3,3,3-trifluoropropyl)thieno[2,3-d]pyrimidine-2,4(1H,3H)-dione]
0.053	CCn1c(=O)c2c(C)c(C(=O)N3CCC(O)C(C)C3)sc2n(CCC(F)(F)F)c1=O (stereo not drawn) [Example 73, 3-Ethyl-6-[(4-hydroxy-3-methylpiperidin-1-yl)carbonyl]-5-methyl-1-(3,3,3-trifluoropropyl)thieno [2,3-d]pyrimidine-2,4(1H,3H)-dione (enantiomer pair 1)]
0.027	CCCn1c(=O)c2c(C)c(C(=O)N3CCC(C)(O)CC3)sc2n(CCC(F)(F)F)c1=O [Example 76, 6-[(4-Hydroxy-4-methylpiperidin-1-yl)carbonyl]-5-methyl-3-propyl-1-(3,3,3-trifluoropropyl)thieno[2,3-d]pyrimidine-2,4(1H,3H)-dione]
0.075	CCCn1c(=O)c2c(C)c(C(=O)N3CCC(O)(CO)CC3)sc2n(CCC(F)(F)F)c1=O [Example 77, 6-{[4-Hydroxy-4-(hydroxymethyl)piperidin-1-yl]carbonyl}-5-methyl-3-propyl-1-(3,3,3-trifluoropropyl)thieno[2,3-d]pyrimidine-2,4(1H,3H)-dione]
0.019	O=C(c1sc2c(c1C(F)F)c(=O)n(CCc1ccccc1)c(=O)n2CCC(F)(F)F)N1CCC(O)CC1 [Example 84, 5-(Difluoromethyl)-6-[(4-hydroxypiperidin-1-yl)carbonyl]-3-(2-phenylethyl)-1-(3,3,3-trifluoropropyl)thieno[2,3-d]pyrimidine-2,4(1H,3H)-dione]
0.026	CCc1c(C(=O)N2CCC(O)CC2)sc2c1c(=O)n(CC)c(=O)n2CCC(F)(F)F [Example 87, 3,5-Diethyl-6-[(4-hydroxypiperidin-1-yl)carbonyl]-1-(3,3,3-trifluoropropyl)thieno[2,3-d]pyrimidine-2,4(1H,3H)-dione]
